This is an account of results in US20030224000A1, “Methods for blocking or alleviating staphylococcal nasal colonization by intranasal application of monoclonal antibodies” (priority 2001, published 2003).

Experiment [1] deals with S. aureus strain MBT 5040. The experiment is described as follows: Minimal inhibitory concentration (MIC). Format: cell-based. The note with it: Staphylococcus aureus; S. aureus MBT 5040, clinical MRSA strain.
The test system of experiment [2] is streptomycin resistant S. aureus type 5 (SA5). Kind of experiment: Mouse nasal colonization model, S. aureus preincubated with MAb before instillation. The format is in vivo, mice. The method, then:
Kiser et al. developed a staphylococcal nasal colonization model in mice to study staphylococcal factors that influence nasal colonization (30). […] Briefly, streptomycin resistant S. aureus type 5 was grown on high salt Columbia agar to promote capsule formation. The bacteria were washed with sterile saline to remove media components and resuspended at ˜10^8 organisms/animal dose in saline containing various concentrations and combinations of anti-staphylococcal or irrelevant control MAbs. Following a preincubation of 1 hr, the bacteria were repelleted and resuspended in a final volume of 10 μl per animal dose in either saline or saline containing antibody. Mice that have been maintained on streptomycin-containing water for 24 hrs were sedated with anesthesia. Staphylococci were instilled in the nares of the mice by pipetting without contact with the nose.
Generally, following four to seven days during which the animals were maintained on streptomycin-containing water, the animals were sacrificed and the noses removed surgically and dissected. Nasal tissue was vortexed vigorously in saline plus 0.5% Tween-20 to release adherent bacteria, and the saline was plated on Columbia blood agar and tryptic soy agar containing streptomycin to determine colonization.
According to this procedure, streptomycin-resistant S. aureus type 5 (SA5, 1 to 3×10^8/mouse) was preincubated for 1 hr in saline or saline containing A110 (2-3 mg purified IgG/mouse dose of 1-3×10^8 bacteria). Following preincubation, the bacteria were pelleted and resuspended in saline or in saline containing A110 (10 μl/mouse dose). Ten mice each were intranasally instilled with SA5 in saline or SA5 in A110. Table 4 tabulates three experiments showing that nasal application of A110 in PBS blocks and alleviates staphylococcal nasal colonization.

[3] abbreviates: Table 5: 2 × 10^8 SA5 instilled with MAb, 2 mg/mouse dose.

One may read the MIC as the least concentration at which growth counts as inhibited. The low end stands for inhibition by little substance, the high end for a need for much substance.

Bounds are passed on as bounds.

The molecule `COc1cccc(OC)c1C(=O)N[C@@H]1C(=O)N2[C@@H]1SC(C)(C)[C@@H]2C(=O)O` [methicillin] gave an MIC in experiment [1] of over 36 mg/L.

As for “Medi 493: irrelevant control, chimeric IgG1 MAb against RSV (MedImmune)”, in experiment [2] (MAb in saline, Table 5 experiment), the “Effect on staphylococcal nasal colonization in mice” value is given as “no effect”. Moreover, in experiment [2] (setting [3]), the “Average number of colonies recovered per mouse” value turned out to be 137 and the “Number of mice colonized” value is reported as 9/9.
